Results: article PMC8566451, “Lead optimization of novel quinolone chalcone compounds by a structure–activity relationship (SAR) study to increase efficacy and metabolic stability” (Scientific Reports, 2021)

What was measured:
HeLa = test: Sulforhodamine B (SRB) assay; assay type: cell-based; settings: Homo sapiens; for GI50: HeLa cervical cancer cells, 48 h, SRB; for IC50: HeLa, Supplementary Table S1, SRB
Description: (§1) The human MDA-MB-231, MCF7, MDA-MB-468, RPMI-8226 and HeLa cell lines were purchased from ATCC and maintained in Dulbecco's Modified Eagle Medium (DMEM)—high glucose supplemented with 10% fetal bovine serum (FBS) and antibiotics/antimycotics. Cell line authentication was carried out by Genetica DNA Laboratories (Burlington, NC) using a short tandem repeat (STR) profiling method (March 2015; July 2015; September 2016). Melanoma cells E-055 (MZ-Mel-3), E-097 (Mel-SOE), E-112 (UKRV-Mel-38), E-157 (UKRV-Mel-17) were obtained from the European Searchable Tumour Line Database (ESTDAB) cell bank (a kind gift of Dr. Graham Pawelec, Tubingen University, Germany). MDA-MB-435 was purchased from the Division of Cancer Treatment and Diagnosis Tumor Repository. All melanoma cells were cultured in Roswell Park Memorial Institute (RPMI) medium supplemented with 10% FBS and P/S/antimycotics. Primary human epidermal melanocytes from normal adult abdominal skin were purchased from ATCC (cat # PCS-200–013) and Cell Applications (cat#104-05a). The melanocytes were cultured in the media supplied by the companies.
(§2) The SRB assay was used to assess drug-induced cytotoxicity and cell proliferation as previously described[2],[33],[34] with a few modifications. Briefly, cells were plated 10,000 to 25,000 cells/cm^2 in 96-well plates (100 µl medium) and allowed to adhere overnight. The cell counts were different for each cell line to ensure optimal cell growth for the duration of the assay. Eight different concentrations of compound solutions using 2–4 times serial dilutions (100 µl). Cells were then incubated for an additional 48 h and then fixed with 100 µl ice-cold 10% (w/v) trichloroacetic acid (TCA) (without removing the cell medium, final concentration, 3.3% of TCA) and stained with 0.4% SRB (w/v) in 1% acetic acid (v/v). The relative growth rate (%) was calculated for each of the compound concentrations according to the following formula: 100 * (T − T0)/(C − T0), in which T is the optical density (OD) after exposure to a certain concentration of the compound after 48 h, T0 is the OD at the start of drug exposure (time zero) and C is the control growth. The GI50 for each compound was obtained from a non-linear sigmoidal dose–response (variable slope) curve fitted by GraphPad Prism v.4.03 software.

MCF7 = test: Sulforhodamine B (SRB) assay; assay type: cell-based; settings: Homo sapiens; for GI50: MCF7 breast cancer cells, 48 h, SRB; for IC50: MCF7, Supplementary Table S1, SRB
Description: as §1, §2

MDA-MB231 = test: Sulforhodamine B (SRB) assay; assay type: cell-based; settings: Homo sapiens, MDA-MB-231; for GI50: MDA-MB231 breast cancer cells, 48 h, SRB; for IC50: Supplementary Table S1, SRB
Description: as §1, §2

MDA-MB435 = test: Sulforhodamine B (SRB) assay; assay type: cell-based; settings: Homo sapiens, MDA-MB-435, MDA-MB435 cells, 48 h
Description: as §1, §2

MDA-MB468 = test: Sulforhodamine B (SRB) assay; assay type: cell-based; settings: Homo sapiens, MDA-MB-468, MDA-MB468 breast cancer cells, 48 h
Description: as §1, §2

MZ-Mel-3 = test: Sulforhodamine B (SRB) assay; assay type: cell-based; settings: MZ-Mel-3 melanoma cells, 48 h
Description: as §1, §2

Mel-SOE = test: Sulforhodamine B (SRB) assay; assay type: cell-based; settings: Mel-SOE melanoma cells, 48 h
Description: as §1, §2

UKRV-Mel-17 = test: Sulforhodamine B (SRB) assay; assay type: cell-based; settings: UKRV-Mel-17 melanoma cells, 48 h
Description: as §1, §2

UKRV-Mel-38 = test: Sulforhodamine B (SRB) assay; assay type: cell-based; settings: UKRV-Mel-38 melanoma cells, 48 h
Description: as §1, §2

MDA-MB231-TaxR = test: Sulforhodamine B (SRB) assay; assay type: cell-based; settings: Homo sapiens, MDA-MB231-TaxR paclitaxel-resistant breast cancer cells, 48 h
Excerpt: We had initially determined that quinolone chalcones were promising anti-proliferative through a first round screening and identified CTR-17 and CTR-20 as favorable structures for anticancer activity. […] We carried out a comparative SAR study to determine if we could further optimize the quinolone chalcone to maximize efficacy. The Sulforhodamine B (SRB) assay was used to measure the anti-proliferative/cell killing activities of CTRs, for which several different cell lines were use: the cervical cancer HeLa, the breast cancer cell lines MDA-MB231, MDA-MB468, MDA-MB231TaxR (an induced paclitaxel-resistant sub-cell line of the MDA-MB231[9]) and MCF7. In addition, a subset was tested against the melanoma cell lines MZ-MEL-3.1, Mel-SOE, UKRV-Mel-38, UKRV-Mel-17 and MDA-MB-435 (Table 1, Supplemental Table S1).
as §2

porcine tubulin = target: T1, porcine tubulin (Sus scrofa, UniProt P02550+P02554); test: In vitro tubulin polymerization assay; assay type: biochemical; settings: 3 µM compound, 20 µM porcine tubulin, 37 °C, 60 min
T1 construct: purchased Cytoskeleton Inc., Denver, CO BK011P
T1 sequence (P02554 whole entry): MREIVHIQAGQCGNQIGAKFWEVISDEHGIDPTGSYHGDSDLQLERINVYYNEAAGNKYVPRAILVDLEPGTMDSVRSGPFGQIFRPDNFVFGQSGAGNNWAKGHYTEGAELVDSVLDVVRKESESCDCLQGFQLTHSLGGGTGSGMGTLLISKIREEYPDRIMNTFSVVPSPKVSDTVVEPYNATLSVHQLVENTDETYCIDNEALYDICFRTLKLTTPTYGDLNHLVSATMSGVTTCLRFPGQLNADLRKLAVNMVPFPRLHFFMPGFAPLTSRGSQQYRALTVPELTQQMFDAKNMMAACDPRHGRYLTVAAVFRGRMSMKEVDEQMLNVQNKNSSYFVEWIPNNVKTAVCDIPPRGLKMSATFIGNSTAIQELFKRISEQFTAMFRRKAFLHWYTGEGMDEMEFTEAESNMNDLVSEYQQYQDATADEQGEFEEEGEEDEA
T1 sequence (P02550 whole entry): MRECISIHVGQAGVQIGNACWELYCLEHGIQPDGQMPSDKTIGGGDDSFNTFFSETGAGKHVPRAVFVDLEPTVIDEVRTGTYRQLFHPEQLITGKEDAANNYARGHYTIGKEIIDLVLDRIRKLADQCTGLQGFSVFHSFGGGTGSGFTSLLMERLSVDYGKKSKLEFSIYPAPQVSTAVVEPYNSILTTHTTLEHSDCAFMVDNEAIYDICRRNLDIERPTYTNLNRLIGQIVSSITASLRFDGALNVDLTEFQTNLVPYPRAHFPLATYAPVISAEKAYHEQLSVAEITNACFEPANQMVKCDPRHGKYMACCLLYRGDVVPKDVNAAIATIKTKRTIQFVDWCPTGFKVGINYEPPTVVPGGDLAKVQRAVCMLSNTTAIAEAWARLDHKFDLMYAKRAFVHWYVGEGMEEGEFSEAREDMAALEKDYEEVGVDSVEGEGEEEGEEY
Description: Spontaneous polymerization of 20 µM porcine tubulin was initiated with the addition of 1 mmol/L GTP at 37 °C and monitored every minute for 60 min in the presence of the indicated concentration of CTR-21, CTR-32, nocodazole, paclitaxel, or a DMSO vehicle control. To make the graph simpler, only 3 µM concentration is shown. […] A modified Dixon plot was used to determine the inhibitory concentration of CTR-21 and CTR-32 (Ki).
Microtubule assembly was assessed using a Tubulin Polymerization assay kit (BK011P; Cytoskeleton Inc., Denver, CO). […] Polymerization was started by incubating at 37 °C and followed by absorbance readings every 1 min at 340 nm for 1 h using a Synergy H4 plate reader.

RPMI-8226 = test: Sulforhodamine B (SRB) assay; assay type: cell-based; settings: Homo sapiens, Supplementary Table S1, SRB
Description: as §1, §2

[1] = system: cancer cell lines (breast cancer, melanoma, cervical cancer); test: SRB assay, average GI50 over cancer cell lines; assay type: cell-based; settings: average over the cell lines of Table 1 or Supplemental Table S1; read-out: average GI50
Description: as §2

| GI50 (HeLa) | GI50 (MCF7) | GI50 (MDA-MB231) | GI50 (MDA-MB435) | GI50 (MDA-MB468) | GI50 (MDA-MB231-TaxR) | IC50 (HeLa) | IC50 (MCF7) | IC50 (MDA-MB231) | IC50 (RPMI-8226) | GI50 [1] | SMILES | GI50 (MZ-Mel-3) | GI50 (Mel-SOE) | GI50 (UKRV-Mel-17) | GI50 (UKRV-Mel-38) | effect on tubulin polymerization (porcine tubulin) |
| --- | --- | --- | --- | --- | --- | --- | --- | --- | --- | --- | --- | --- | --- | --- | --- | --- |
| 8 ± 1 nM | 6 ± 1 nM | 3 ± 1 nM | 4 ± 1 nM | 9 ± 3 nM | 131 ± 35 nM | – | – | – | – | – | CC(=O)O[C@H]1C(=O)[C@@]2(C)[C@H]([C@H](OC(=O)c3ccccc3)[C@]3(O)C[C@H](OC(=O)[C@H](O)[C@@H](NC(=O)c4ccccc4)c4ccccc4)C(C)=C1C3(C)C)[C@]1(OC(C)=O)CO[C@@H]1C[C@@H]2O [Tax, paclitaxel, reference compound] | 58 ± 15 nM | 60 ± 16 nM | 14 ± 4 nM | 6 ± 1 nM | shorter nucleation phase, steeper growth phase, and reaches steady state quicker |
| – | – | – | – | – | – | 1110 ± 130 nM | 1230 ± 80 nM | 730 ± 60 nM | 150 ± 20 nM | 805 nM | COc1ccc2[nH]c(=O)c(/C=C/C(=O)c3ccc(OC(F)(F)F)cc3OC)cc2c1 [CTR-36, (E)-6-methoxy-3-(3-(2-methoxy-4-(trifluoromethoxy)phenyl)-3-oxoprop-1-enyl)quinolin-(1H)-one] | – | – | – | – | – |
| – | – | – | – | – | – | 90 ± 20 nM | 100 ± 10 nM | 210 ± 20 nM | 70 ± 10 nM | 118 nM | COc1ccc(F)cc1C(=O)/C=C/c1cc2ccccc2[nH]c1=O [CTR-29, (E)-3-(3-(5-fluoro-2-methoxyphenyl)-3-oxoprop-1-enyl)quinolin-2(1H)-one] | – | – | – | – | – |
| 280 ± 78 nM | 485 ± 97 nM | 657 ± 72 nM | 290 ± 66 nM | 320 ± 26 nM | 1300 ± 83 nM | – | – | – | – | 464 nM | COc1ccccc1C(=O)/C=C/c1cc2ccccc2[nH]c1=O [CTR-17, (E)-3-(3-(2-methoxyphenyl)-3-oxoprop-1-enyl)quinolin-2(1H)-one] | 227 ± 30 nM | 786 ± 52 nM | 504 ± 33 nM | 626 ± 154 nM | – |
| – | – | – | – | – | – | 2070 ± 250 nM | 2120 ± 360 nM | 2350 ± 260 nM | 1320 ± 100 nM | 2000 nM | COc1ccc(C(=O)/C=C/c2cc3cc(OC)ccc3[nH]c2=O)c(OC)c1 [CTR-35, (E)-3-(3-(2,4-dimethoxyphenyl)-3-oxoprop-1-enyl)-6-methoxyquinolin-2(1H)-one] | – | – | – | – | – |
| – | – | – | – | – | – | 1340 ± 200 nM | 1540 ± 360 nM | 2020 ± 10 nM | 1040 ± 130 nM | 1500 nM | COc1cc2cc(/C=C/C(=O)c3ccccc3OC)c(=O)[nH]c2cc1OC [CTR-24, (E)-6,7-dimethoxy-3-(3-(2-methoxyphenyl)-3-oxoprop-1-enyl)quinolin-2(1H)-one] | – | – | – | – | – |
| – | – | – | – | – | – | 290 ± 20 nM | 320 ± 10 nM | 960 ± 150 nM | 200 ± 30 nM | 443 nM | COc1ccc(OC)c(C(=O)/C=C/c2cc3ccccc3[nH]c2=O)c1 [CTR-26, (E)-3-(3-(2,5-dimethoxyphenyl)-3-oxoprop-1-enyl)quinolin-2(1H)-one] | – | – | – | – | – |
| – | – | – | – | – | – | 640 ± 30 nM | 850 ± 60 nM | 840 ± 80 nM | 260 ± 20 nM | 648 nM | COc1ccc(OC)c(C(=O)/C=C/c2cc3cc(OC)ccc3[nH]c2=O)c1 [CTR-34, (E)-3-(3-(2,5-dimethoxyphenyl)-3-oxoprop-1-enyl)-6-methoxyquinolin-2(1H)-one] | – | – | – | – | – |
| 443 ± 112 nM | 510 ± 38 nM | 530 ± 119 nM | 307 ± 7 nM | 304 ± 2 nM | 1210 ± 179 nM | – | – | – | – | 499 nM | COc1ccccc1C(=O)/C=C/c1cc2cc(C)ccc2[nH]c1=O [CTR-18, (E)-3-(3-(2-methoxyphenyl)-3-oxoprop-1-enyl)-6-methylquinolin-2(1H)-one] | 239 ± 13 nM | 817 ± 34 nM | 596 ± 162 nM | 746 ± 177 nM | – |
| – | – | – | – | – | – | 60 ± 10 nM | 140 ± 20 nM | 150 ± 10 nM | 40 ± 10 nM | 98 nM | COc1ccc2[nH]c(=O)c(/C=C/C(=O)c3ccc(F)cc3OC)cc2c1 [CTR-38, (E)-3-(3-(4-fluoro-2-methoxyphenyl)-3-oxoprop-1-enyl)-6-methoxyquinolin-2(1H)-one] | – | – | – | – | – |
| – | – | – | – | – | – | 140 ± 30 nM | 320 ± 40 nM | 390 ± 90 nM | 100 ± 30 nM | – | COc1ccc2[nH]c(=O)c(/C=C/C(=O)c3cc(F)ccc3OC)cc2c1 [CTR-37, (E)-3-(3-(5-fluoro-2-methoxyphenyl)-3-oxoprop-1-enyl)-6-methoxyquinolin-2(1H)-one] | – | – | – | – | – |
| – | – | – | – | – | – | 1800 ± 270 nM | 2200 ± 350 nM | 2690 ± 240 nM | 770 ± 100 nM | – | COc1ccc(C(=O)/C=C/c2cc3ccccc3[nH]c2=O)c(OC)c1 [CTR-27, (E)-3-(3-(2,4-dimethoxyphenyl)-3-oxoprop-1-enyl)quinolin-2(1H)-one] | – | – | – | – | – |
| – | – | – | – | – | – | 1500 ± 130 nM | 1470 ± 150 nM | 1420 ± 80 nM | 200 ± 30 nM | – | COc1cc(F)ccc1C(=O)/C=C/c1cc2ccccc2[nH]c1=O [CTR-30, (E)-3-(3-(4-fluoro-2-methoxyphenyl)-3-oxoprop-1-enyl)quinolin-2(1H)-one] | – | – | – | – | – |
| 124 ± 36 nM | 194 ± 21 nM | 216 ± 21 nM | 90 ± 10 nM | 408 ± 12 nM | 966 ± 163 nM | – | – | – | – | 232 nM | COc1ccc2[nH]c(=O)c(/C=C/C(=O)c3ccccc3OC)cc2c1 [CTR-20, (E)-6-Methoxy-3-(3-(2-methoxyphenyl)-3-oxoprop-1-enyl) quinolin-2(1H)-one] | 98 ± 21 nM | 338 ± 78 nM | 283 ± 57 nM | 338 ± 33 nM | – |
| 19 ± 1 nM | 41 ± 5 nM | 30 ± 4 nM | 23 nM | 77 ± 13 nM | 54 ± 13 nM | 40 nM | 90 ± 10 nM | 130 ± 20 nM | 50 ± 20 nM | 36 nM | CCOc1ccccc1C(=O)/C=C/c1cc2cc(OC)ccc2[nH]c1=O [CTR-40, (E)-3-(3-(2-ethoxyphenyl)-3-oxoprop-1-enyl)-6-methoxyquinolin-2(1H)-one] | 11 nM | 53 ± 4 nM | 28 ± 5 nM | 42 ± 11 nM | – |
| – | – | – | – | – | – | 1320 ± 20 nM | 1690 ± 70 nM | 2600 ± 180 nM | 770 ± 210 nM | 1600 nM | COc1cccc(OC)c1C(=O)/C=C/c1cc2ccccc2[nH]c1=O [CTR-25, (E)-3-(3-(2,6-dimethoxyphenyl)-3-oxoprop-1-enyl)quinolin-2(1H)-one] | – | – | – | – | – |
